Test results taken from patent US9365830B2, “Agents and methods for inhibiting human pluripotent stem cell growth” (VIACYTE, INC., priority 2010, dated 2016).

Assays:
Format in all cases: cell-based, human
[1] = test system: OCT4-positive cells in Stage 1 differentiations of hES cells; experiment: Plating assay for depletion of OCT4-positive cells in Stage 1 suspension aggregates, OCT4 immunostaining
Method: Human ES cell suspension aggregates were formed in rotational culture as described previously and differentiated through Stage 1 (definitive endoderm). About 20-30 aggregates were then plated per well in 4-well tissue culture dishes coated with MATRIGEL· diluted 1:200, and cultured for 24 hours in hESC medium (DMEM/F12, 10% XF-KSR, 10 ng/mL Activin A and 10 ng/mL Heregulin). This approach was intended to increase the contrast in OCT4 expression between undifferentiated hESCs and cells committed to differentiation. […] Stated in another way, mixed population cell cultures in hESC medium would potentially support expansion/proliferation of residual undifferentiated (hESCs), thereby show increased OCT4 gene expression, as compared to cells committed to differentiation, which would have decreased of OCT4 gene expression. Plated aggregates were immunostained for OCT4 protein and counterstained with DAPI, a nuclear stain (FIG. 12). The cell aggregates that were plated had flattened and spread out within a 24-hour period; while the centers of the aggregates were still domed. […] Brightly staining OCT4-positive cells were easily identified and distinguishable from the majority of OCT4 negative cells. OCT4-positive cells were generally found in clusters and most often within the domed area of a plated aggregate. […] Smaller aggregates residing in a larger aggregate may occur as a result of the initial stages of rotational culture, or the aggregation process, during which small clusters (primary aggregates) form initially. Aggregation of two or more primary aggregates likely leads to the formation of larger secondary aggregates, which can be 100-150 μm in diameter. Thus, it is possible that any single clusters of OCT4-positive cells exist at the center of a primary aggregate and resist differentiation. Such clusters would remain substantially undifferentiated and stain OCT4-positive. One hypothesis is that primary aggregates are specified to differentiation relative to their positioning in primary and secondary aggregates. For example, FIGS. 12A through 12E show a representative series of images, from small (primary) (e.g. FIGS. 12A and 12B) and larger (secondary) (e.g. FIGS. 12C-12E) plated aggregates containing OCT4-positive clusters (dark circles).
(§1) Depletion of OCT4-positive cells during Stage 1 differentiation was examined using the plating assay described above. Stage 1 differentiations of hES cells were treated from day 1 to 2 with the candidate compounds as described in Example 2 (chelerythrine chloride, caffeic acid and Ivermectin), at their EC50 concentrations for hES cells. Plated untreated and DMSO-treated aggregates were indistinguishable, and both contained discrete clusters of OCT4-positive cells. See FIG. 13A top and bottom panels for a DMSO treated example. The intensity of OCT4-positive staining in differentiating aggregate cell cultures treated with DMSO (control) was equivalent to undifferentiated hES cells.
Additional experiments were performed using higher concentrations of compounds and extended effects of the compounds in cell culture plated aggregates in hESC medium for 24 or 72 hours before staining (FIGS. 15 and 16). […] Another group of Stage 1 differentiating cultures were processed in parallel, but treated with 10 μm chelerythrine chloride.

[2] = test system: undifferentiated hESCs growing in adherent culture; experiment: EC50 of cytotoxic effect on undifferentiated hESCs in adherent culture, real-time impedance assay; conditions: Homo sapiens, read-out: EC50 concentrations for hES cells (cytotoxic effect)
Method: In summary, the final three (3) candidates identified from both the primary and secondary screens (EXAMPLE 1) and the full screen of the LOPAC1280™ collection (EXAMPLE 2) were Chelerythrine Chloride, Caffeic acid and Ivermectin. FIG. 11 lists the known or inferred mode(s) of action for these three compounds, as well as their structures. EC50 values for the respective cytotoxic effects on undifferentiated hESCs growing in adherent culture were determined using real-time impedance assays.
as §1

[3] = test system: pancreatic endoderm differentiations of hESCs; experiment: Suspension aggregate differentiation to pancreatic endoderm after Stage 1 treatment, Q-PCR; conditions: Stage 1 cultures treated with 0.1 μM Caffeic acid or 0.17 μM Ivermectin
Method: FIGS. 10A-10I are bar graphs showing the relative gene expression levels of OCT4 (FIG. 10A), MIXL (FIG. 10B), HNF1B (FIG. 10C), HNF4A (FIG. 10D), PAX4 (FIG. 10E), NGN3 (FIG. 10F), NKX2.2 (FIG. 10G), NKX6.1 (FIG. 10H), and PTF1A (FIG. 10I) after treatment of suspension aggregate cell cultures at Stages 1 with DMSO (Control), 0.1 μM Caffeic acid or 0.17 μM Ivermectin agents. Untreated control samples were collected at d0 and d1 (left panel). Treated samples were collected at d2, d3, d5, d7, d9, d11, and d13. The columns for each day of the treated samples are (from left to right): DMSO, Caffeic acid, and Ivermectin. The cultures were differentiated to the end of Stage 4. The results from an untreated, pancreatic endoderm differentiation are shown on the right, with samples collected on days 0, 1, 2, 5, 8, 10 and 14.
To further determine the effects of the above compounds (excluding those compounds that induced off-target differentiation), three selected compounds (chelerythrine chloride (FIGS. 5 & 6), caffeic acid and Ivermectin) were screened for effects on later stages of pancreatic differentiation, (such as Stages 2-5). Human ESCs were first differentiated through Stage 1 then to Stages 2 to 5 in suspension aggregate cultures similar to that above. Stage 1 cultures were treated with DMSO, caffeic acid or Ivermectin substantially as described above. Untreated control samples were collected at d0 (hESC) and d1 (FIG. 10, left panel), while treated samples were collected at days 2, 3, 5, 7, 9, 11 and 13 (FIG. 10 d2, d3, d5, d7, d9, d11 and d13 respectively). Gene expression levels in the collected samples were analyzed using Q-PCR and compared to the d0 (hESC) sample as well as qualified pancreatic endoderm (FIG. 10, right panel). The qualified pancreatic endoderm control consisted of about 50% pancreatic endoderm, about 46% endocrine cells and about 4% “other” cells as determined by flow cytometry. Neither caffeic acid nor Ivermectin affected survival, growth and/or proliferation of pancreatic endoderm differentiations. […] Typical gene expression levels for Stages 3, 4 and 5 cells were normal; for example, increased expression of NKX6.1 and PTF1A at Stage 4, pancreatic endoderm (FIGS. 10H and 10I), and of NGN3 and NKX2.2 at Stage 5, endocrine precursor and endocrine cells (FIGS. 10 F and 10G) was observed.

Structure (SMILES): O=C(O)C=Cc1ccc(O)c(O)c1 [caffeic acid, 3,4-dihydroxycinnamic acid]
- size of clusters of OCT4-positive cells ([1]; 5 or 10 μm caffeic acid, 24 hours, vs DMSO-treated (or untreated) controls): smaller in size
- expansion of clusters of OCT4-positive cells ([1]; 5 or 10 μm caffeic acid, 72 hours, vs DMSO treated control): did not expand substantially
- size of OCT4-positive clusters ([1]; another study, 0.1 μM caffeic acid, 24 hours after plating in hESC medium (FIG. 14, BG02)): even more substantial decrease
- intensity for OCT4 staining ([1]; treated day 1 to 2 of Stage 1 at EC50 concentration, plated 24 hours in hESC medium, vs untreated or DMSO): significantly decreased
- EC50 [2]: 100 nM
- Typical gene expression levels for Stages 3, 4 and 5 cells (NKX6.1, PTF1A, NGN3, NKX2.2) ([3]; Q-PCR d2-d13): normal
- survival, growth and/or proliferation of pancreatic endoderm differentiations (pancreatic endoderm viability) ([3]; differentiated to end of Stage 4): did not affect pancreatic endoderm viability
